Each molecule was assayed against KRAS (aa 1-169) G12C, C51S, C80L, C118S (Homo sapiens (Human), UniProt P01116, C118S/C51S/C80L/G12C) (assay: Biochemical functional assay: SOS1-mediated nucleotide exchange of GDP-loaded KRAS G12C, binding to GST-cRaf RBD, FRET readout). Conditions: 3 hrs pre-incubation with compound at 24° C., SOS1, GTPyS, bound in uM.
Sequence of KRAS (aa 1-169) G12C, C51S, C80L, C118S (P01116 other isoform, or with tags, fused parts or gaps G12C/C51S/C80L/C118S): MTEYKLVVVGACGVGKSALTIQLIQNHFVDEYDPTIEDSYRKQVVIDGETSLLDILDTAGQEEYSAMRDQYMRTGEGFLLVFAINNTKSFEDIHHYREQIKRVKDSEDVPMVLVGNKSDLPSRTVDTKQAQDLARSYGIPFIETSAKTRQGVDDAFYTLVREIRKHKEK
Protocol: Biochemical Functional Assay
The KRAS (aa 1-169) G12C, C51S, C80L, C118S with a His-tag was expressed, purified and loaded with GDP in house. All protein and substrate solutions were prepared in assay buffer containing 25 mM HEPES pH7.5, 10 mM MgCl2, and 0.01% Triton X-100. Purified GDP-loaded KRAS (aa 1-169) G12C, C51S, C80L, C118S protein was pre-incubated with a serially diluted compound at 24° C. for 3 hrs. Purified SOS1 (aa 564-1049) protein, GTPyS (Sigma) and GST-cRaf RBD (aa 1-149) were then added to each well and incubated at 24° C. for additional 3 hrs. […] Following the incubation, Mab Anti-6HIS-T cryptate (Cisbio) and Mab Anti GST-XL665 (Cisbio) were added and further incubated at 24° C. for 3 hrs. The binding interaction between active GTPyS KRAS G12C and GST-cRaf RBD brings the Tb and XL665 into close proximity enabling an increased FRET signal (Ex337 nm, Em665 nm/620 nm). The inhibition percentage of nucleotide exchange reaction in presence of increasing concentrations of compounds was calculated based on the ratio of fluorescence at 665 nm to that at 620 nm detected on a BMG PHERAstar FSX instrument. The IC50 value of each compound was calculated from fitting the data to the four-parameter logistic model by Dotmatics.
`C=CC(=O)N1CCN(c2ncnc3cc(-c4ccc(O)c(Cl)c4)c4c(c23)OCCC4)C[C@@H]1CC#N` [Compound A27, (S)-2-(1-acryloyl-4-(5-(3-chloro-4-hydroxyphenyl)-3,4-dihydro-2H-pyrano[2,3-f]quinazolin-10-yl)piperazin-2-yl)acetonitrile] showed an IC50 greater than 10 µM.
Work on `C=CC(=O)N1CCN(c2ncnc3cc(-c4ccc(O)c(F)c4)c4c(c23)OCCC4)C[C@@H]1CC#N` [Compound A28, (S)-2-(1-acryloyl-4-(5-(3-fluoro-4-hydroxyphenyl)-3,4-dihydro-2H-pyrano[2,3-f]quinazolin-10-yl)piperazin-2-yl)acetonitrile] yielded an IC50 greater than 10 µM.
For `C=CC(=O)N1CCN(c2nc(OC[C@@H]3C[C@@H](F)CN3C)nc3cc(-c4cccc(F)c4F)c4c(c23)OCCC4)CC1` [Compound B14, 1-(4-(5-(2,3-difluorophenyl)-8-(((2S,4R)-4-fluoro-1-methylpyrrolidin-2-yl)methoxy)-3,4-dihydro-2H-pyrano[2,3-f]quinazolin-10-yl)piperazin-1-yl)prop-2-en-1-one], the IC50 was greater than 10 µM.

Same assay, conditions: 3 hrs pre-incubation with compound at 24° C., SOS1, GTPyS, inhibition of nucleotide exchange
`C=C(F)C(=O)N1CCN(c2ncnc3cc(-c4c(Cl)c(C)cc5[nH]ncc45)c4c(c23)OCCC4)C[C@@H]1CC#N` [Compound A23, 2-((2S)-4-(5-(5-chloro-6-methyl-1H-indazol-4-yl)-3,4-dihydro-2H-pyrano[2,3-f]quinazolin-10-yl)-1-(2-fluoroacryloyl)piperazin-2-yl)acetonitrile] gave an IC50 of 0.346 µM.
Molecule `C=CC(=O)N1CCN(c2ncnc3cc(-c4c(C)cccc4C)c4c(c23)OCCC4)C[C@@H]1CC#N` [Compound A24, (S)-2-(1-acryloyl-4-(5-(2,6-dimethylphenyl)-3,4-dihydro-2H-pyrano[2,3-f]quinazolin-10-yl)piperazin-2-yl)acetonitrile] has an IC50 of 0.262 µM.
With `C=CC(=O)N1CCN(c2ncnc3cc(-c4c(C)c(C)cc5[nH]ncc45)c4c(c23)OCCC4)C[C@@H]1CC#N` [Compound A25, 2-((2S)-1-acryloyl-4-(5-(5,6-dimethyl-1H-indazol-4-yl)-3,4-dihydro-2H-pyrano[2,3-f]quinazolin-10-yl)piperazin-2-yl)acetonitrile] the IC50 was 0.0155 µM.
`C=CC(=O)N1CCN(c2ncnc3cc(-c4c(C)c(Cl)cc5[nH]ncc45)c4c(c23)OCCC4)C[C@@H]1CC#N` [Compound A26, 2-((2S)-1-acryloyl-4-(5-(6-chloro-5-methyl-1H-indazol-4-yl)-3,4-dihydro-2H-pyrano[2,3-f]quinazolin-10-yl)piperazin-2-yl)acetonitrile] gave an IC50 of 0.0099 µM.
For `C=CC(=O)N1CCN(c2ncnc3cc(-c4c(Cl)c(Cl)cc5[nH]ncc45)c4c(c23)OCCC4)C[C@@H]1CC#N` [Compound A29, 2-((2S)-1-acryloyl-4-(5-(5,6-dichloro-1H-indazol-4-yl)-3,4-dihydro-2H-pyrano[2,3-f]quinazolin-10-yl)piperazin-2-yl)acetonitrile], the IC50 was 0.0093 µM.
`C=C(F)C(=O)N1CCN(c2ncnc3cc(-c4c(C)cccc4F)c4c(c23)OCCC4)C[C@@H]1CC#N` [Compound A30, 2-((2S)-4-(5-(2-fluoro-6-methylphenyl)-3,4-dihydro-2H-pyrano[2,3-f]quinazolin-10-yl)-1-(2-fluoroacryloyl)piperazin-2-yl)acetonitrile] was tested, and the IC50 was 1.96 µM.
With `C=CC(=O)N1CCN(c2ncnc3cc(-c4cccc(C)c4F)c4c(c23)OCCC4)C[C@@H]1CC#N` [Compound A31, (S)-2-(1-acryloyl-4-(5-(2-fluoro-3-methylphenyl)-3,4-dihydro-2H-pyrano[2,3-f]quinazolin-10-yl)piperazin-2-yl)acetonitrile] the IC50 was 0.137 µM.
`C=CC(=O)N1CCN(c2ncnc3cc(-c4cccc5cccc(Cl)c45)c4c(c23)OCCC4)C[C@@H]1CC#N` [Compound A32, (S)-2-(1-acryloyl-4-(5-(8-chloronaphthalen-1-yl)-3,4-dihydro-2H-pyrano[2,3-f]quinazolin-10-yl)piperazin-2-yl)acetonitrile] gave an IC50 of 0.012 µM.
In the case of `C=CC(=O)N1CCN(c2ncnc3cc(-c4c(C)cccc4F)c4c(c23)OCCC4)C[C@@H]1CC#N` [Compound A33, 2-((2S)-1-acryloyl-4-(5-(2-fluoro-6-methylphenyl)-3,4-dihydro-2H-pyrano[2,3-f]quinazolin-10-yl)piperazin-2-yl)acetonitrile], the IC50 is reported as 0.233 µM.
In the case of `C=CC(=O)N1CCN(c2ncnc3cc(-c4c(F)cccc4F)c4c(c23)OCCC4)C[C@@H]1CC#N` [Compound A34, (S)-2-(1-acryloyl-4-(5-(2,6-difluorophenyl)-3,4-dihydro-2H-pyrano[2,3-f]quinazolin-10-yl)piperazin-2-yl)acetonitrile], the IC50 is reported as 2.11 µM.
In the case of `C=CC(=O)N1CCN(c2nc(OC[C@@H]3CCCN3C)nc3cc(-c4c(Cl)c(C)cc5[nH]ncc45)c4c(c23)OCCC4)C[C@@H]1CC#N` [Compound B1, 2-((2S)-1-acryloyl-4-(5-(5-chloro-6-methyl-1H-indazol-4-yl)-8-(((S)-1-methylpyrrolidin-2-yl)methoxy)-3,4-dihydro-2H-pyrano[2,3-f]quinazolin-10-yl)piperazin-2-yl)acetonitrile], the IC50 is reported as 0.003 µM.
Work on `C=CC(=O)N1CCN(c2nc(N3CC(N(C)C)C3)nc3cc(-c4c(F)cccc4F)c4c(c23)OCCC4)CC1` [Compound B2, 1-(4-(5-(2,6-difluorophenyl)-8-(3-(dimethylamino)azetidin-1-yl)-3,4-dihydro-2H-pyrano[2,3-f]quinazolin-10-yl)piperazin-1-yl)prop-2-en-1-one] yielded an IC50 of 2.24 µM.
`C=CC(=O)N1CCN(c2nc(O[C@H]3CN(C)C[C@@H]3OC)nc3cc(-c4c(Cl)c(C)cc5[nH]ncc45)c4c(c23)OCCC4)C[C@@H]1CC#N` [Compound B3, 2-((2S)-1-acryloyl-4-(5-(5-chloro-6-methyl-1H-indazol-4-yl)-8-(((3S,4S)-4-methoxy-1-methylpyrrolidin-3-yl)oxy)-3,4-dihydro-2H-pyrano[2,3-f]quinazolin-10-yl)piperazin-2-yl)acetonitrile] was tested, and the IC50 was 0.0065 µM.
Work on `C=CC(=O)N1CCN(c2nc(N3CC(N(C)C)C3)nc3cc(-c4c(Cl)c(C)cc5[nH]ncc45)c4c(c23)OCCC4)C[C@@H]1CC#N` [Compound B4, 2-((2S)-1-acryloyl-4-(5-(5-chloro-6-methyl-1H-indazol-4-yl)-8-(3-(dimethylamino)azetidin-1-yl)-3,4-dihydro-2H-pyrano[2,3-f]quinazolin-10-yl)piperazin-2-yl)acetonitrile] yielded an IC50 of 0.0047 µM.
Work on `C=CC(=O)N1CCN(c2nc(OCCN(C)C)nc3cc(-c4c(Cl)c(C)cc5[nH]ncc45)c4c(c23)OCCC4)C[C@@H]1CC#N` [Compound B5, 2-((2S)-1-acryloyl-4-(5-(5-chloro-6-methyl-1H-indazol-4-yl)-8-(2-(dimethylamino)ethoxy)-3,4-dihydro-2H-pyrano[2,3-f]quinazolin-10-yl)piperazin-2-yl)acetonitrile] yielded an IC50 of 0.0079 µM.
Molecule `C=CC(=O)N1CCN(c2nc(OC[C@@H]3CCCN3C)nc3cc(-c4c(Cl)c(C)cc5[nH]ncc45)c4c(c23)OCCC4)CC1` [Compound B6, 1-(4-(5-(5-chloro-6-methyl-1H-indazol-4-yl)-8-(((S)-1-methylpyrrolidin-2-yl)methoxy)-3,4-dihydro-2H-pyrano[2,3-f]quinazolin-10-yl)piperazin-1-yl)prop-2-en-1-one] has an IC50 of 0.034 µM.
Work on `C=CC(=O)N1CCN(c2nc(N3CC(N(C)C)C3)nc3cc(-c4c(O)cccc4F)c4c(c23)OCCC4)CC1` [Compound B7, 1-(4-(8-(3-(dimethylamino)azetidin-1-yl)-5-(2-fluoro-6-hydroxyphenyl)-3,4-dihydro-2H-pyrano[2,3-f]quinazolin-10-yl)piperazin-1-yl)prop-2-en-1-one] yielded an IC50 of 1.09 µM.
`C=C(F)C(=O)N1CCN(c2nc(N3CC(N(C)C)C3)nc3cc(-c4c(O)cccc4F)c4c(c23)OCCC4)C[C@@H]1CC#N` [Compound B8, 2-((2S)-4-(8-(3-(dimethylamino)azetidin-1-yl)-5-(2-fluoro-6-hydroxyphenyl)-3,4-dihydro-2H-pyrano[2,3-f]quinazolin-10-yl)-1-(2-fluoroacryloyl)piperazin-2-yl)acetonitrile] was tested, and the IC50 was 0.255 µM.
`C=C(F)C(=O)N1CCN(c2nc(N3CC(N(C)C)C3)nc3cc(-c4cccc(F)c4F)c4c(c23)OCCC4)C[C@@H]1CC#N` [Compound B9, (S)-2-(4-(5-(2,3-difluorophenyl)-8-(3-(dimethylamino)azetidin-1-yl)-3,4-dihydro-2H-pyrano[2,3-f]quinazolin-10-yl)-1-(2-fluoroacryloyl)piperazin-2-yl)acetonitrile] gave an IC50 of 0.456 µM.
`C=CC(=O)N1CCN(c2nc(N3CC(N(C)C)C3)nc3cc(-c4cccc5ccccc45)c4c(c23)OCCC4)CC1` [Compound B10, 1-(4-(8-(3-(dimethylamino)azetidin-1-yl)-5-(naphthalen-1-yl)-3,4-dihydro-2H-pyrano[2,3-f]quinazolin-10-yl)piperazin-1-yl)prop-2-en-1-one] showed an IC50 of 0.235 µM.
With `C=C(F)C(=O)N1CCN(c2nc(OC[C@@H]3CCCN3C)nc3cc(-c4c(Cl)c(C)cc5[nH]ncc45)c4c(c23)OCCC4)C[C@@H]1CC#N` [Compound B11, 2-((2S)-4-(5-(5-chloro-6-methyl-1H-indazol-4-yl)-8-(((S)-1-methylpyrrolidin-2-yl)methoxy)-3,4-dihydro-2H-pyrano[2,3-f]quinazolin-10-yl)-1-(2-fluoroacryloyl)piperazin-2-yl)acetonitrile] the IC50 was 0.00781 µM.

Source: patent US20240166660A1, “KRAS G12C INHIBITORS” (BeiGene Switzerland GmbH, priority 2021, published 2024)
